Several values for one entry are separate records, joined by “and”; a condition that tells them apart may be missing. Identical values can stand only once. Toxic doses and inconclusive results are not listed.
Test system: CD2F1 mice, L1210 leukemia ip, survival T/C
Experiment: NCI In Vivo Anticancer Drug Screen. Data for tumor model L1210 Leukemia (intraperitoneal) in CD2F1 (CDF1) mice
Settings: endpoint: mean survival time, higher = longer survival
In short: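 Antitumor effect is scored in animals hosting a serially transplanted tumor. Values compare compound-dosed animals against vehicle-only controls as a simple quotient.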

[1] = dose: 400.0 mg/kg/injection, schedule: Q01DX001 (ip), vehicle: saline
[2] = dose: 50.0 mg/kg/injection, schedule: Q01DX009 (ip), vehicle: saline with Tween-80
[3] = dose: 100.0 mg/kg/injection, schedule: Q01DX009 (ip), vehicle: saline with Tween-80
[4] = dose: 100.0 mg/kg/injection, schedule: Q04DX003 (ip), vehicle: saline with Tween-80
[5] = dose: 100.0 mg/kg/injection, schedule: Q04DX002 (ip), vehicle: saline with Tween-80
[6] = dose: 200.0 mg/kg/injection, schedule: Q01DX009 (ip), vehicle: saline with Tween-80
[7] = dose: 200.0 mg/kg/injection, schedule: Q04DX002 (ip), vehicle: saline with Tween-80
[8] = dose: 400.0 mg/kg/injection, schedule: Q01DX009 (ip), vehicle: saline with Tween-80
[9] = dose: 400.0 mg/kg/injection, schedule: Q04DX002 (ip), vehicle: saline with Tween-80
[10] = dose: 200.0 mg/kg/injection, schedule: Q04DX003 (ip), vehicle: saline with Tween-80
[11] = dose: 400.0 mg/kg/injection, schedule: Q04DX003 (ip), vehicle: saline with Tween-80

## CC(=O)Nn1cnc2c(SCc3ccccc3)ncnc21
dose: 177.0 mg/kg/injection, schedule: Q01DX001 (ip), vehicle: saline
  T/C: 95 % of control
dose: 266.0 mg/kg/injection, schedule: Q01DX001 (ip), vehicle: saline
  T/C: 95 % of control
[1]
  T/C: 97 % of control
dose: 600.0 mg/kg/injection, schedule: Q01DX001 (ip), vehicle: saline
  T/C: 96 % of control

## C[N+](C)(C)CCOC(=O)c1cc(CBr)cc(CBr)c1
dose: 100.0 mg/kg/injection, schedule: Q04DX003 (ip), vehicle: saline
  T/C: 103 % of control

## CCCCOS(=O)(=O)c1ccc(C)cc1
dose: 100.0 mg/kg/injection, schedule: Q04DX002 (ip), vehicle: Klucel (hydroxypropylcellulose) (HPC)
  T/C: 93 % of control
dose: 200.0 mg/kg/injection, schedule: Q04DX002 (ip), vehicle: Klucel (hydroxypropylcellulose) (HPC)
  T/C: 101 % of control
dose: 400.0 mg/kg/injection, schedule: Q04DX002 (ip), vehicle: Klucel (hydroxypropylcellulose) (HPC)
  T/C: 90 % of control

## O=CNO
dose: 100.0 mg/kg/injection, schedule: Q01DX001 (ip), vehicle: saline with Tween-80
  T/C: 108 % of control
dose: 200.0 mg/kg/injection, schedule: Q01DX001 (ip), vehicle: saline with Tween-80
  T/C: 104 % of control
dose: 400.0 mg/kg/injection, schedule: Q01DX001 (ip), vehicle: saline with Tween-80
  T/C: 104 % of control

## NCCCCS(=O)(=O)Nc1ccc(Nc2c3ccccc3nc3cc([N+](=O)[O-])ccc23)cc1
[2]
  T/C: 158 % of control
[3]
  T/C: 172 % of control
[4]
  T/C: 157 % of control
dose: 300.0 mg/kg/injection, schedule: Q04DX003 (ip), vehicle: saline with Tween-80
  T/C: 159 % of control
dose: 400.0 mg/kg/injection, schedule: Q04DX003 (ip), vehicle: saline
  T/C: 151 % of control

## Cc1c(C)c(C)c(CN2CCC(C)CC2)c(C)c1C
dose: 25.0 mg/kg/injection, schedule: Q01DX009 (ip), vehicle: saline with Tween-80
  T/C: 90 % of control
[2]
  T/C: 91 % of control
[5]
  T/C: 98 % of control
[6]
  T/C: 90 % of control
[7]
  T/C: 94 % of control
[8]
  T/C: 86 % of control
[9]
  T/C: 94 % of control

## Cc1ccc(C(O)(c2ccccc2)c2ccccc2C(=O)Nc2ccccc2)cc1 (centres undefined)
[4]
  T/C: 88 % of control
[10]
  T/C: 90 % of control
[11]
  T/C: 95 % of control

## Cc1cccc(CC(C)O)n1 (centres undefined)
dose: 100.0 mg/kg/injection, schedule: Q01DX001 (ip), vehicle: saline
  T/C: 96 % of control
[5]
  T/C: 97 % of control
dose: 100.0 mg/kg/injection, schedule: Q04DX002 (ip), vehicle: saline
  T/C: 93 % of control
[4]
  T/C: 96 % of control and 97 % of control
dose: 200.0 mg/kg/injection, schedule: Q01DX001 (ip), vehicle: saline
  T/C: 94 % of control
[7]
  T/C: 106 % of control
dose: 200.0 mg/kg/injection, schedule: Q04DX002 (ip), vehicle: saline
  T/C: 96 % of control
[10]
  T/C: 86 % of control and 112 % of control
[1]
  T/C: 98 % of control
[9]
  T/C: 93 % of control
dose: 400.0 mg/kg/injection, schedule: Q04DX002 (ip), vehicle: saline
  T/C: 93 % of control
[11]
  T/C: 97 % of control and 106 % of control

## CCCCC1CCC(NC(=O)Nc2ccccc2)CC1 (centres undefined)
[4]
  T/C: 113 % of control
[10]
  T/C: 109 % of control
[11]
  T/C: 105 % of control

## CN(C)CCCC#N
[2]
  T/C: 96 % of control
[3]
  T/C: 102 % of control

## O=C(Nc1cccc2c1C(=O)c1ccc(Nc3cc(NC(=O)c4ccccc4)c4c(c3)C(=O)c3ccccc3C4=O)cc1C2=O)c1ccccc1
[3]
  T/C: 106 % of control
[4]
  T/C: 102 % of control
[6]
  T/C: 102 % of control
[10]
  T/C: 102 % of control
[8]
  T/C: 119 % of control
[11]
  T/C: 96 % of control

## [Cl][Pt+2][Cl].[NH-]CC(C[NH-])(Cc1ccccc1)Cc1ccccc1
dose: 3.12 mg/kg/injection, schedule: Q04DX003 (ip), vehicle: saline
  T/C: 97 % of control
dose: 6.25 mg/kg/injection, schedule: Q04DX003 (ip), vehicle: saline
  T/C: 103 % of control and 111 % of control
dose: 12.5 mg/kg/injection, schedule: Q04DX003 (ip), vehicle: saline
  T/C: 115 % of control and 111 % of control
dose: 25.0 mg/kg/injection, schedule: Q04DX003 (ip), vehicle: saline
  T/C: 115 % of control
dose: 200.0 mg/kg/injection, schedule: Q04DX003 (ip), vehicle: saline
  T/C: 172 % of control
